Entries after “also recorded” stand apart in the source; their conditions may differ.
What was measured:
IL-8 = IL-8 secretion (ELISA) in D/C-treated ex-vivo intestinal biopsies; type: cell-based, human; design: IL-8 secretion Value: unit not given here
Procedure: (§1) Biopsies (3 mm3) obtained from inflamed or healthy intestines and placed in PBS were treated with a Dispase (1 U/ml, Cat # 07923, StemCell Technologies Inc.) and Collagenase Type 1 (0.5 mg/ml with an activity of 0.5-2 U/mg Cat # 07902, StemCell Technologies Inc.) solution. Tubes were then incubated for 2-3h at 37° C.
After incubation, the tubes containing the biopsies were centrifuged at 5000 rpm for 1 minute. Then the supernatants were removed and tissues were washed three times with Hank's balance salt solution (HBSS). After each wash tubes were centrifuged as mentioned above. Then the tissues were placed on small Petri dish and cut into 2-3 pieces with a clean scalpel. Explants were cultured in groups of 2-3 with the villus surface facing up on microporous membranes (0.45-m pore size) contained in either Millicell-HA or organotypic tissue culture inserts (Millipore) placed inside 6-well plastic tissue culture dishes (Costar 3506) along with 1.5 ml of tissue culture medium. The tissue culture medium was Dulbecco's modified Eagle's medium supplemented with 10% heat-inactivated fetal calf serum, penicillin (100units/ml), streptomycin (100 μg/ml), leupeptin (50 μg/ml), PMSF (1 mM), soybean trypsin inhibitor (50 μg/ml). In cases dexamethasone (DX) was included in the media, its concentration was 200 μg/ml. This is followed by treating the samples with Control and extracts treatments (cannabis or other). In cases TNF-α is added to induce ILs expression the concentration was 50 μg/ml. Cultures are then incubated at 37° C. and gassed hourly with 95% oxygen and 5% carbon dioxide. For evaluation of TNF-α expression, supernatants are taken after 1 h of incubation. For other ILs, supernatants are taken after overnight incubation unless mentioned differently. The supernatants from biopsies are used for determination of cytokine profile by measuring their levels using commercial ELISA Kits. The following cytokines were measured: TNF Alfa (the supernatant was taken after 1-3 h), for the rest of the cytokines and interleukins supernatant was analyzed after 16 hours. The following factors were analyzed: IFN gamma, TFG beta, IL-10, IL-23/IL-23R, IL-12, IL-1 (IL 113), IL 2, IL-8/IL-8R, IL-6, IL-17, IL-13, IL-5, IL-4, IL-3. Levels of secreted factors from inflamed and healthy tissue and from cannabis treated and not treated tissue were compared. After all samples are taken, tissue viability will be assessed by addition of Alamar blue (Risazurin) as described below.
Biopsies obtained from both healthy and sick intestinal samples of two patients were cultured overnight incubation using the full protocol (D/C) described in material and methods section hereinabove. Seven different cytokines were evaluated following overnight incubation using specific ELISA kits manufactured by R&D Systems.
The cytokines tested included TNF-α, IL-6, IL-8, IL-10, IL-12, IL-17 and IL-27. In addition to the ethanolic cannabis extract was tested for its ability to reduce inflammation. After supernatant sampling, additional media was added to the wells and Resazurin (alamar blue) viability assay was carried out. […] Responsive cytokines that show significant levels of expression (FIGS. 1A-F) on one hand vs. other ILs in which basal level were obtained which didn't allow a clear conclusion (FIGS. 2A-D).
Several more experiments were done to corroborate the above results. These are summarized in Table 1 below(C2F and F7 and dexamethasone).

IL-6 = IL-6 production (ELISA) in ex-vivo intestinal biopsies; type: cell-based, human; conditions: D/C treated biopsies of patient P6; 18 hours; pure CBD 25 μM / 16.6 μM (FIG. 5)
Procedure: as §1
After incubation, the tubes containing the biopsies were centrifuged at 5000 rpm for 1 minute. Then the supernatants were removed and tissues were washed three times with Hank's balance salt solution (HBSS). After each wash tubes were centrifuged as mentioned above. Then the tissues were placed on small Petri dish and cut into 2-3 pieces with a clean scalpel. […] The following cytokines were measured: TNF Alfa (the supernatant was taken after 1-3 h), for the rest of the cytokines and interleukins supernatant was analyzed after 16 hours. The following factors were analyzed: IFN gamma, TFG beta, IL-10, IL-23/IL-23R, IL-12, IL-1 (IL 113), IL 2, IL-8/IL-8R, IL-6, IL-17, IL-13, IL-5, IL-4, IL-3. […] After all samples are taken, tissue viability will be assessed by addition of Alamar blue (Risazurin) as described below. […]

[1] = biopsy PH-13-H: healthy patient 13, healthy tissue
[2] = biopsy PH-15-H: healthy patient 15, healthy tissue
[3] = biopsy PS-3-H: sick patient 3, healthy tissue
[4] = biopsy PS-3-S: sick patient 3, sick tissue
[5] = biopsy PS-4-H: sick patient 4, healthy tissue
[6] = biopsy PS-4-S: sick patient 4, sick tissue
[7] = biopsy PS-7-H: sick patient 7, healthy tissue
[8] = biopsy PS-7-S: sick patient 7, sick tissue
[9] = biopsy PS-8-H: sick patient 8, healthy tissue
[10] = biopsy PS-11-H: sick patient 11, healthy tissue
[11] = biopsy PS-11-S: sick patient 11, sick tissue
[12] = biopsy PS-12-H: sick patient 12, healthy tissue
[13] = biopsy PS-12-S: sick patient 12, sick tissue
[14] = biopsy PS-14-H: sick patient 14, healthy tissue
[15] = biopsy PS-14-S: sick patient 14, sick tissue
[16] = biopsy PS-16-H: sick patient 16, healthy tissue
[17] = biopsy PS-16-S: sick patient 16, sick tissue
[18] = biopsy PS-17-H: sick patient 17, healthy tissue
[19] = biopsy PS-17-S: sick patient 17, sick tissue
[20] = biopsy PS-18-H: sick patient 18, healthy tissue
[21] = biopsy PS-18-S: sick patient 18, sick tissue
[22] = biopsy PS-19-H: sick patient 19, healthy tissue
[23] = biopsy PS-19-S: sick patient 19, sick tissue

## C[C@@H]1C[C@H]2[C@@H]3CCC4=CC(=O)C=C[C@]4(C)[C@@]3(F)[C@@H](O)C[C@]2(C)[C@@]1(O)C(=O)CO [Dexamethasone, dexamethasone]
IL-8; [1]
  IL-8 secretion % Reduction from NT: −1.1%
  IL-8 secretion Value: 844.6
IL-8; [2]
  IL-8 secretion % Reduction from NT: 46.4%
  IL-8 secretion Value: 451.9
IL-8; [3]
  IL-8 secretion % Reduction from NT: 32.4%
  IL-8 secretion Value: 670.1
IL-8; [4]
  IL-8 secretion % Reduction from NT: 17.5%
  IL-8 secretion Value: 742.6
IL-8; [5]
  IL-8 secretion % Reduction from NT: 4.3%
  IL-8 secretion Value: 915.4
IL-8; [6]
  IL-8 secretion % Reduction from NT: 78.3%
  IL-8 secretion Value: 216.9
IL-8; [7]
  IL-8 secretion % Reduction from NT: 14.7%
  IL-8 secretion Value: 745.1
IL-8; [8]
  IL-8 secretion % Reduction from NT: −5.6%
  IL-8 secretion Value: 793.9
IL-8; [9]
  IL-8 secretion % Reduction from NT: 69.5%
  IL-8 secretion Value: 215.3
IL-8; [10]
  IL-8 secretion % Reduction from NT: 94.8%
  IL-8 secretion Value: 34.9
IL-8; [11]
  IL-8 secretion % Reduction from NT: 83.3%
  IL-8 secretion Value: 74.2
IL-8; [12]
  IL-8 secretion % Reduction from NT: 43.7%
  IL-8 secretion Value: 530.6
IL-8; [13]
  IL-8 secretion % Reduction from NT: 4.0%
  IL-8 secretion Value: 817.8
IL-8; [14]
  IL-8 secretion % Reduction from NT: 44.2%
  IL-8 secretion Value: 485.8
IL-8; [15]
  IL-8 secretion % Reduction from NT: 24.1%
  IL-8 secretion Value: 666.8
IL-8; [16]
  IL-8 secretion % Reduction from NT: 38.3%
  IL-8 secretion Value: 166.5
IL-8; [17]
  IL-8 secretion % Reduction from NT: 83.6%
  IL-8 secretion Value: 96.7
IL-8; [18]
  IL-8 secretion % Reduction from NT: 68.9%
  IL-8 secretion Value: 303.5
IL-8; [19]
  IL-8 secretion % Reduction from NT: 0.5%
  IL-8 secretion Value: 1064.0
IL-8; [20]
  IL-8 secretion % Reduction from NT: 66.4%
  IL-8 secretion Value: 331.0
IL-8; [21]
  IL-8 secretion % Reduction from NT: 36.1%
  IL-8 secretion Value: 484.9
IL-8; [22]
  IL-8 secretion % Reduction from NT: 32.6%
  IL-8 secretion Value: 86.0
IL-8; [23]
  IL-8 secretion % Reduction from NT: 64.2%
  IL-8 secretion Value: 80.5

## C=C(C)[C@@H]1CCC(C)=C[C@H]1c1c(O)cc(CCCCC)cc1O [CBD, Cannabidiol]
IL-6
  anti-inflammatory activity (IL-6 production): doesn't harbor any anti-inflammatory activity; also recorded: no anti-inflammatory activity

Reference: patent US20190100731A1, “EX-VIVO […] MODEL, METHODS OF PRODUCING SAME AND USES THEREOF” (The State of Israel, Ministry of Agriculture & Rural …, priority 2016, published 2019)
